Like-named read-outs stand apart in the source and are kept apart here.
Key:
human RNaseH1 = molecular target: T1, human RNaseH1 (Homo sapiens, UniProt O60930); experiment: Oligonucleotide-directed RNA cleavage assay, human RNaseH1; assay type: biochemical; conditions: for Human RNaseH1: Table 1, qualitative inhibition
T1 construct: made in house; host or cells: E. coli
T1 sequence (O60930 1-286): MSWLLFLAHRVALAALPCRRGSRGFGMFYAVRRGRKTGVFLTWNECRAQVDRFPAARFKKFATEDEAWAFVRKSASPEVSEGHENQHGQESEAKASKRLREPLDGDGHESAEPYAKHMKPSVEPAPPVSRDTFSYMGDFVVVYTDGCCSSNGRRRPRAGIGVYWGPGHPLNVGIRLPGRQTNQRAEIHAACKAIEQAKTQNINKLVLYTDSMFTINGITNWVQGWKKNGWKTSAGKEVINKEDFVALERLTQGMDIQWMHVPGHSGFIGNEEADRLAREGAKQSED
Excerpt: RNaseH expression and purification.
Oligonucleotide-directed RNA cleavage assay.

HBV replication = HBV replication inhibition assay in HepDES19 cells (strand-preferential q-PCR); assay type: cell-based, Hepatitis B virus; conditions: for EC50: Hepatitis B virus
Description: HBV replication assay. […] Cells were seeded into 6-well plates and incubated in DMEM/F12, 10% fetal bovine serum (FBS), 1% penicillin/streptomycin (P/S) with 1 μg/mL tetracycline. Tetracycline was withdrawn after 24 hours. The test compound was applied to duplicate wells 48 hours later in medium containing a final DMSO concentration of 1%, and medium containing the compound was refreshed daily for the following two days. Cells were harvested and non-encapsidated nucleic acids were digested with micrococcal nuclease (New England Biolabs). HBV DNA was purified from capsids using QIAamp Cador Pathogen Mini Kit (Qiagen) with proteinase K incubation overnight at 37° C. TaqMan PCR was performed for 40 cycles at an annealing temperature of 60° C.
Thirty-nine HID, HPD, flutimide, and related POH compounds (Structures shown in FIG. 3) were screened for their ability to inhibit HBV replication in HepDES19 cells. […] Inhibition was calculated as the amount of plus-polarity DNA relative to the DMSO treated controls.
Briefly, HepDES19 were seeded in 12-well plates at 2×10^5 cells per well in the absence of tetracycline. Test compound was applied to cells 48 hours after removal of tetracycline. […] HBV DNA was purified from capsids using a QIAamp pathogen minikit with proteinase K digestion extended to overnight at 37° C. TaqMan PCR was performed for 40 cycles with an annealing temperature of 60° C.

MTT cytotoxicity assay = assay type: cell-based; conditions: human; Table 2, HepDES19 cells
Description: MTT cytotoxicity assays. 1.0×10^4 HepDES19 cells per well were seeded in 96-well plates and incubated in DMEM with 10% FBS plus 1% P/S, 1% non-essential amino acids, and 1% glutamine. Compounds were diluted in medium to the indicated concentrations plus 1% DMSO and added to cells 24 hours after plating, with each concentration tested in triplicate. Medium containing the compound was refreshed daily for the next two days. Thiazolyl blue tetrazolium bromide (MTT, Sigma-Aldrich) was added to 0.25 mg/mL, the cultures were incubated for 60 minutes, metabolites were solubilized in acidic isopropanol, and absorbance was read at 570 nm.

HSV-1 = HSV-1 replication inhibition assay in Vero cells; assay type: cell-based, herpes simplex virus 1; conditions: Human alphaherpesvirus 1, 24 h; 5 μM, Vero cells; read-out: HSV-1 suppression (log10 at 5 μM), class symbol
Description: Thirty-seven compounds were counter-screened for efficacy against HSV-1 to evaluate specificity of the inhibitors and to help determine if the efficacy against HBV replication may be due to an unsuspected indirect effect on the cells. Vero cells infected with HSV-1 at an MOI of 0.1 were treated with 5 μM of compound for 24 hours. Inhibition was calculated as log 10 suppression of plaque forming units compared with DMSO vehicle control.
Vero cells were maintained DMEM supplemented with 3% newborn calf serum, 3% bovine growth serum, 2 mM L-glutamine, and P/S. Test compounds were applied to the cells in the presence of 0.05% DMSO. The herpes simplex virus 1 (HSV-1) strain used for screening was a de-identified clinical isolate from the Saint Louis University Hospital passaged once in culture.
Compounds and virus were diluted in phosphate buffered saline (PBS) containing 2% newborn calf serum and 2 mM L-glutamine so that the final concentration of compound was 5 μM. The cells were incubated at 37° C. for 1 hour with the virus containing inoculum, then the inoculum was removed and the wells were washed once in PBS. Compound diluted to 5 μM in supplemented DMEM was added and cells were incubated at 37° C. for an additional 23 hours. The plates were then microscopically inspected for cytopathic effect (CPE) or toxicity and then frozen at −80° C. Virus titers for wells with limited CPE compared to DMSO vehicle-treated controls were then determined by plaque assay on Vero cells. Each experiment was repeated at least once.

HBV RNaseH [1] = molecular target: T2, HBV RNaseH (Hepatitis B virus genotype D subtype ayw, UniProt P03156); conditions: for Inhibition of HBV RNaseH, Oligonucleotide directed cleavage assay: Table 3, compounds at 100, 60 and 20 μM, compounds 1-91 and 138-140 previously reported (Cai et al., 2014)
Description: RNaseH expression and purification. […] The enriched extracts were dialyzed into 50 mM HEPES pH 7.3, 300 mM NaCl, 20% glycerol, and 5 mM DTT and stored in liquid nitrogen.
Oligonucleotide-directed RNA cleavage assay. […] This mixture was incubated with test compounds in 50 mM Tris pH 8.0, 190 mM NaCl, 5 mM MgCl2, 3.5 mM DTT, 0.05% NP40, 6% glycerol, and 1% DMSO at 42° C. for 90 minutes. Cleavage products were resolved by denaturing polyacrylamide gel electrophoresis, detected by autoradiography, and quantified using ImageJ. Non-specific background values were determined from the incorrect oligonucleotide negative control lane and subtracted from all experimental values. IC50 values were then calculated with GraphPad Prism using three-parameter log(inhibitor) vs. response non-linear curve fitting with the curve minimum set to zero to reflect background subtraction.
The HBV RNaseH inhibition activity of the 16 previously untested compounds was examined using an oligonucleotide-directed cleavage assay. Compounds were incubated with the HBV RNaseH, a ^32P-labeled RNA substrate plus a complementary DNA oligonucleotide and compounds at 100, 60, and 20 μM and the amount of the RNA cleavage products was measured following resolution on an acrylamide gel.
Briefly, a ^32P-labeled RNA was combined with a DNA oligonucleotide and the RNA:DNA substrate was incubated in the presence of the RNaseH and test compounds in 50 mM tris pH 8.0, 190 mM NaCl, 5 mM MgCl2, 3.5 mM DTT, 0.05% NP40, 6% glycerol, and 1% DMSO at 42° C. for 90 minutes. The products were resolved by gel electrophoresis and detected by audioradioagraphy.

HBV RNaseH [2] = molecular target: T2, HBV RNaseH; experiment: Molecular beacon RNaseH assay; conditions: for inhibition in the molecular beacon assay: 2.1 μg purified HBV RNaseH; for Inhibition of HBV RNaseH, Molecular Beacon cleavage assay: Table 3, 0 to 500 μM
Description: In this assay, a hairpin DNA oligonucleotide labeled with fluorescein on one end and a quencher on the other is held in a linear conformation by annealing to a complementary RNA; cleavage of the RNA causes the DNA to fold into a hairpin, suppressing fluorescence (FIG. 8A).
The substrate is a hairpin DNA oligonucleotide with a 5′ fluorescein reporter and a 3′ black hole quencher annealed to a complementary RNA oligonucleotide. The reaction was initiated by adding 5 mM Mg^++, and fluorescence was monitored at 37° C. with a Synergy 4 96-well plate reader. Inhibition was qualitatively determined as a dose-dependent reduction in the rate of substrate degradation.

[3] = MTS cytotoxicity assay (CellTiter 96); conditions: human
Description: (§1) HepDES19 cells were seeded at 1×10^4 cells per well in a 96 well plate in the absence of tetracycline. The test compounds were applied in triplicate to the cells 48 hours later and the cells were incubated for 72 hours. Cell viability was measured using the CellTiter 96 Aqueous Non-Radioactive Cell Proliferation Assay (Promega). [3-(4,5-dimethylthiazol-2-yl)-5-(3-carboxymethoxyphenyl)-2-(4-sulfophenyl)-2H-tetrazolium, inner salt] (MTS) and phenazine methosulfate (PMS) solution at 2 mg/mL MTS and 0.043 mg/mL PMS were added to the medium, the cells were incubated for two hours at 37° C., and absorbance was measured at 490 nm. […] Neutral red was added to the media at a final concentration of 40 μg/mL. Cells were washed with PBS and incubated with neutral red medium for two hours at 37° C. The neutral red medium was removed and the cells were washed with PBS. […] Lactate dehydrogenase (LDH) release was measured using the LDH-cytotoxicity colorimetric assay kit (BioVision). Cells were lysed with 1% Triton-X to provide the high control and DMSO vehicle treatment was the low control. Supernatants were collected and transferred to a fresh 96 well plate, and LDH reaction mixture containing the catalyst and dye solution was added. The reaction was incubated for 15-20 minutes at room temperature in a dark box and absorbance was measured at 490 nm. Percent cytotoxicity was calculated as [(test sample−low control)/([…])]×100.

HepDES19 cells = experiment: MTS cytotoxicity assay (CellTiter 96); conditions: CC50 by MTS assay over EC50
Description: as §1

[4] = Neutral red (NR) cytotoxicity assay; assay type: cell-based; conditions: human, HepDES19 cells, read-out: Toxicity in HepDES19, NR (CC50)
Description: (§2) To further evaluate potential cytotoxicity of these hits, the effect of the compounds was determined for the uptake of neutral red (NR) by the lysosomes and lactate dehydrogenase (LDH) release into the supernatant due to cell membrane permeability. […] Overall, the TI values in Table 3 and FIG. 4 indicate that cytotoxicity was not the cause of antiviral efficacy, although it may have contributed to the apparent efficacy for #84, 85, 90, and 91, which all have TI values below 5.

[5] = Lactate dehydrogenase (LDH) release cytotoxicity assay; assay type: cell-based; conditions: human, HepDES19 cells, read-out: Toxicity in HepDES19, LDH (CC50)
Description: as §2

HBV polymerase = molecular target: T3, HBV polymerase (Hepatitis B virus genotype D subtype ayw, UniProt P03156); experiment: Endogenous polymerase reaction (EPR) in isolated HBV capsids; assay type: biochemical; conditions: ddTTP 5.7 μM; for effect on 32P incorporation in EPR: inhibitors at 4× EC50, #138 and #211 at 30 μM
T3 construct: expressed in transfected cells; host or cells: HepDES19 (HepG2 with a stably transfected HBV genotype D genome)
Excerpt: Anti-RNaseH activity is implied from their preferential suppression of the plus-polarity DNA strand (FIG. 4), but strand-preferential inhibition could also result from inhibiting the polymerase also. This is because positive-polarity DNA synthesis can be suppressed both directly by inhibiting the RNaseH enzyme and indirectly by reducing the amount of negative-polarity DNA strand that templates the positive-polarity strand, whereas minus-polarity DNA synthesis can only be suppressed by chain termination. To determine if the efficacy of these compounds was due to inhibition of the HBV polymerase, capsids isolated from HepDES19 cells were tested in the endogenous polymerase reaction (EPR) to measure DNA chain elongation by the HBV polymerase along the HBV nucleic acids within the capsids. Isolated HBV capsids were supplied with dATP, dTTP, dGTP, and [α^32P]dCTP in the presence of inhibitors at 4× their EC50 values; negative control compounds #138 and #211 were tested at 30 μM. 1% DMSO was used as a vehicle control, and ddTTP (5.7 μM) was the positive control polymerase inhibitor. Samples were incubated at 37° C. for 7 hours to permit DNA chain elongation by the encapsidated HBV polymerase. Nucleic acids were purified, resolved on a 0.8% agarose gel and detected by autoradiography. DNAs from HBV capsids treated with the compounds incorporated ^32P similarly to DMSO control (FIG. 5).
HBV cores were harvested from HepDES19 cells grown in the absence of tetracycline for 20 days using polyethylene glycol 8000 precipitation (Guo et al., 2003). Cells were rinsed in PBS and lysed in 1 mL core lysis buffer with 2 μL of protease inhibitor cocktail (Sigma) at room temperature for 10 minutes. Cell lysates were collected and 10 mM CaCl2) was added. The lysate was centrifuged for 5 minutes at 21,000 g, the supernatant was incubated with 150 U of micrococcal nuclease at 37° C. for 60 minutes, and then 27 mM EDTA was added to stop the reaction. 333 μL of 26% PEG8000 was added to precipitate core particles and incubated at 4° C. for 6 hours. The samples were centrifuged at 21,000 g for 20 minutes at 4° C. The supernatant was removed and the pellet was resuspended in 250 μL of 10 mM Tris buffer pH 7.5. Cores were stored at −80° C.
The endogenous polymerase reaction was done using a modified procedure from (Nguyen et al., 2007). […] These nucleic acids were dissolved in tris-EDTA buffer, resolved on a 0.8% agarose gel, transferred to a HyBondN membrane, and detected by autoradiography. Band intensities for each experiment were quantified using Image J and percent inhibition was calculated relative to the DMSO-treated reactions. Statistical significance of variation in band intensities was evaluated using a one-way ANOVA with a Dunnett post hoc analysis, with p=0.05 indicating significance.

[6] = HepDES19, read-out: HBV replication inhibition (EC50, μm)

T3 sequence (P03156 whole entry): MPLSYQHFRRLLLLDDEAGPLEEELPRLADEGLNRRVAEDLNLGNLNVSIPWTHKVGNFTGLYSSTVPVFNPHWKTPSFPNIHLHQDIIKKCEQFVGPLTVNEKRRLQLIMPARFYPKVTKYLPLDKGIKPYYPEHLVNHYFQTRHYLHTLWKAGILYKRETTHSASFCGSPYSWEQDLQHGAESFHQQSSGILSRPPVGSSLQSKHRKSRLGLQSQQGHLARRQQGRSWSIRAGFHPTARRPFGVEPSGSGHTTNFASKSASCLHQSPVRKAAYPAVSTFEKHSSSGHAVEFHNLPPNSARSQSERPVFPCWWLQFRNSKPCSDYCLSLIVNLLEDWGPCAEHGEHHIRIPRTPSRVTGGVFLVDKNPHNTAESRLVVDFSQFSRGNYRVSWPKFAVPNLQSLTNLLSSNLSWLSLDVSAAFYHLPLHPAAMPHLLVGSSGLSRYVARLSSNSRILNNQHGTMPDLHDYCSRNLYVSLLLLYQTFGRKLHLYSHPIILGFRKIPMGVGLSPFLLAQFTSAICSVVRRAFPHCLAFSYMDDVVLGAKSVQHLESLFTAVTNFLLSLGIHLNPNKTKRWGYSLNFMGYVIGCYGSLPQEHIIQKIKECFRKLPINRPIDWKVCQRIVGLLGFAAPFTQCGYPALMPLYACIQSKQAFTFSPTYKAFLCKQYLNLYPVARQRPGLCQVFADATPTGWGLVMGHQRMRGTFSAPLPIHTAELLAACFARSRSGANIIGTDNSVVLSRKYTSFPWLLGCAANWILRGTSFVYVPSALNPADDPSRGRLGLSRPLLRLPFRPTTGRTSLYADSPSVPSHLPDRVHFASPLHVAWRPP
T2 sequence (P03156 671-832): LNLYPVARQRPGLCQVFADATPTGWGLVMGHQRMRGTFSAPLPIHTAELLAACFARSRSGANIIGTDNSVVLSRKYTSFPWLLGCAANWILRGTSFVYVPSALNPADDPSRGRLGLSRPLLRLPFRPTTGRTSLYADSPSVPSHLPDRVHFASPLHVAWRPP

SMILES	IC50 (human RNaseH1; Table 1, quantitative values) [µM]	EC50 (HBV replication; [6]) [µM]	CC50 (MTT cytotoxicity assay) [µM]	log reduction at 5 µM (HSV-1)	HBV RNaseH (HBV RNaseH [1]; Table 1, qualitative inhibition in biochemical assay)	Inhibition of HBV RNaseH, Oligonucleotide directed cleavage assay (HBV RNaseH [1])	inhibition of RNA cleavage by HBV RNaseH (HBV RNaseH [1]; compounds at 100, 60 and 20 μM)	inhibition in the molecular beacon assay (HBV RNaseH [2])	Inhibition of HBV RNaseH, Molecular Beacon cleavage assay (HBV RNaseH [2])	Human RNaseH1 (human RNaseH1)	EC50 (HBV replication; Table 2, HepDES19 cells, read-out: EC50) [µM]	CC50 at 72 h [3] [µM]	TI (therapeutic index, CC50(MTS)/EC50) (HepDES19 cells)	CC50 at 72 h [4] [µM]	CC50 at 72 h [5] [µM]	HBV replication inhibition / activity (HBV replication; HepDES19 cells)	HBV replication inhibition (qualitative) (HBV replication; Table 3, qualitative screen at 20 μM)	effect on 32P incorporation in EPR (HBV polymerase)	reduction of DNA elongation in EPR (HBV polymerase; 7 hours, 37° C.) [%]
CCN(CC)C(=O)C1C(=O)N(O)C(=O)c2ccccc21 (stereo not drawn) [Compound 83]	3.4	2.3 ± 1.6	> 100	< 1	+/−	− (No inhibition detected at 100 μM)	negative	inhibited	+ (Dose-dependent inhibition at ≤500 μM)	–	–	–	–	–	–	–	–	–	–
O=C(NCc1ccc(F)cc1)C1C(=O)N(O)C(=O)c2cc(Cl)ccc21 (stereo not drawn) [Compound 87]	–	4.5 ± 3.7	37	< 1	–	− (No inhibition detected at 100 μM)	–	–	− (No inhibition detected at 500 μM)	+++ (detectable inhibition at 10 μM)	1.6	37 ± 17	8.2	24 ± 1	52 ± 15	–	–	–	–
COc1ccc2c(c1)C(=O)N(O)C(=O)C2C(=O)NCc1ccc(F)cc1 (stereo not drawn) [Compound 88]	–	2.5 ± 0.5	40	< 1	–	− (No inhibition detected at 100 μM)	–	–	− (No inhibition detected at 500 μM)	+++ (detectable inhibition at 10 μM)	–	40 ± 6	16	26 ± 2	57 ± 6	–	–	–	–
CC1CC(=O)N(O)C(COc2ccc(Oc3ccc(Cl)cc3)cc2)C1 (stereo not drawn) [Compound 211, Rilopirox, reference compound]	–	–	–	< 1	–	− (No inhibition detected at 100 μM)	–	had no effect on the rate of substrate degradation	− (No inhibition detected at 500 μM)	–	–	–	–	–	–	inactive	− (No inhibition detected at 20 μM)	None of the HBV inhibitors or the two negative control compounds (#138 and 211) significantly altered incorporation	–
Cc1cn([C@H]2CC[C@@H](COP(=O)(O)OP(=O)(O)OP(=O)(O)O)O2)c(=O)[nH]c1=O [ddTTP]	–	–	–	–	–	–	–	–	–	–	–	–	–	–	–	–	–	strongly inhibited	~90
